What all share (assay type): in vivo, Wistar Rats
A short description of series [1]: Rat body weight in global ischemia reperfusion study. The conditions noted are these: mean ± SEM, n = 6; for Body Weight, Basal: male Wistar rats; for Body Weight, Week 01: oral daily dosing (Standard 9.3 mg/kg, NBP 49.6 mg/kg, NR 31 mg/kg).
Another series concerns Interleukin - 6. Nature of the series: Rat Interleukin-6 level after global ischemia reperfusion. The note with it: oral 10 days (Standard 9.3 mg/kg, NBP 49.6 mg/kg, NR 31 mg/kg); 30 mins global ischemia on 7th day, 72 hrs reperfusion; mean ± SEM, n = 6; I/R control 121.83 ± 1.65.
The next series concerns TNF alpha. Put plainly: Rat TNF alpha level after global ischemia reperfusion. The note with it: oral 10 days (Std 9.3 mg/kg, NBP 49.6 mg/kg, NR 31 mg/kg); 30 mins global ischemia on 7th day, 72 hrs reperfusion; mean ± SEM, n = 6; I/R control 172.17 ± 6.35.
Series [2] is described as follows: Rat feed consumption in global ischemia reperfusion study. The note with it: oral daily dosing (Standard 9.3 mg/kg, NBP 49.6 mg/kg, NR 31 mg/kg).

The values that follow come from patent publication US11925195B2, “Synergistic nutritional compositions for treating cerebrovascular diseases” (CELAGENEX RESEARCH (INDIA) PVT. LTD., priority 2019, dated 2024).

For the compound `CCCCC1OC(=O)c2ccccc21` (racemic) [3-N-butylpthalide (NBP), 3-N-butylphthalide], in series [1], the “Body Weight, Basal” value was 214.50 ± 1.12 gm and the “Body Weight, Week 01” value is 224.50 ± 0.76 gm. Further, in the series on Interleukin - 6, the “Interleukin - 6 Levels” value worked out at 85.39 ± 0.62 pg/mL. In addition, in the series on TNF alpha, the “TNF alpha Level” value was 132.00 ± 2.34 pg/mL. The “Feed Consumption, Week 01” value in series [2] was determined as 99.57 ± 1.00 gm.
With `NC(=O)c1ccc[n+]([C@@H]2O[C@H](CO)[C@@H](O)[C@H]2O)c1.[Cl-]` [Nicotinamide Riboside chloride (NR), nicotinamide riboside chloride], in series [1], the “Body Weight, Basal” value is recorded as 215.00 ± 1.46 gm and the “Body Weight, Week 01” value is 224.83 ± 1.08 gm. In addition, the “Interleukin - 6 Levels” value with Interleukin - 6 is 109.56 ± 0.27 pg/mL. In addition, in the series with TNF alpha, the “TNF alpha Level” value is 160.33 ± 4.79 pg/mL. Further, the “Feed Consumption, Week 01” value in series [2] came out at 99.71 ± 1.04 gm.
